Tests used:
[1] = MRI distribution of Mn^++ in the rabbit eye after iontophoresis with an iontophoretic scleral lens device with suction; type: in vivo; settings: suction applied, hydrogel 1.0M Mn^++, 3 mA for 20 minutes, 3 Tesla MRI, FIG. 8
From the text: An iontophoretic scleral lens device is configured to conform to the eye of a rabbit. An electroplated AgAgCl electrode coupled to a 1.0M Mn^++ filled hydrogel is located within a reservoir structure along the contact surface of the scleral lens. The iontophoretic device is coupled to a power source and positioned on an eye of a rabbit, such that the reservoir is located partially within the cul-de-sac in a dorsal region of the eye. A return electrode is attached to the ear of the rabbit, and suction is applied to the scleral lens to preclude movement of the lens relative to the eye surface. 3 mA of current is applied to the scleral lens device for 20 minutes to deliver the Mn^++ from the hydrogel and into the eye. […] Diffusion from this region can be seen in the white band extending toward the posterior eye tissues.

[2] = MRI distribution of Mn^++ in the rabbit eye after iontophoresis with a handheld ocular iontophoretic device; type: in vivo; settings: finger pressure, hydrogel 1.0M Mn^++, 2 mA for 20 minutes, return electrode on ear, 3 Tesla MRI, FIG. 7
From the text: A handheld ocular iontophoretic device is constructed from a plastic tube, wherein one end is shaped to conform to the eye of a rabbit. An electroplated AgAgCl electrode is positioned in one end of the plastic tube and a hydrogel is inserted into the tube so that one side of the hydrogel contacts the electrode, while the opposite side is configured to contact the eye. The hydrogel has been previously loaded with 1.0M Mn^++. The iontophoretic device is coupled to a power source and placed against the surface of an eye of a rabbit, partially within the cul-de-sac in a dorsal location. A return electrode is attached to the ear of the rabbit, and finger pressure is used to seal the device against the eye. 2 mA of current is applied to the iontophoretic device for 20 minutes to deliver the Mn^++ from the hydrogel and into the eye.

Distribution of the Mn^++ within the eye of the rabbit (MRI, white contrast) ([1]; return electrode on ear): delivered primarily into the eye tissues
Structure (SMILES): [Mn+2] [Mn^++]
Depot formation in the eye (MRI, black region along the dorsal region of the eye) [1]: formation of a depot of concentrated Mn^++
Distribution of the Mn^++ within the eye of the rabbit (MRI, white contrast) [2]: delivered primarily to the eyelid and surrounding tissues with relatively little delivery into the eye itself

Reference: patent publication US8480638B2, “Intraocular iontophoretic device and associated methods” (Aciont, Inc., priority 2007, dated 2013)
